Measurements reported in patent US10450299B2, “Substituted quinazoline derivatives as DNA methyltransferase inhibitors” (Pierre Fabre Medicament, priority 2015, dated 2019).
pEC50: −log10 of the molar value.

Experiments:
[1] = biological target: T1, human C-terminal DNMT3A (a.a. 623-908) (Homo sapiens, UniProt Q9Y6K1); experiment: DNMT3A assay (restriction-based fluorescence assay); assay type: biochemical; conditions: for inhibition at 1 µM: compound at 1 μM; for inhibition at 3.2 µM: compound at 3.2 μM
T1 construct: The human C-terminal DNMT3A (a.a. 623-908); made in house
Text: DNMT3A enzyme inhibition was adapted from the restriction-based fluorescence assay protocol described in Ceccaldi et al. (ChemBioChem 2011, 12, 1337-45). Briefly, a 5′-labelled biotin oligonucleotide is hybridized to its complementary strand labelled with 6-carboxyfluorescein at the 3′-end into a 384 well microplate (black Optiplates; Perkin Elmer) pre-coated with avidin. The duplex contains a unique CpG site overlapping with a restriction site of a methylation sensitive restriction enzyme. The human C-terminal DNMT3A (a.a. 623-908), produced as described in Gros et al. (Nucleic Acids Research 2013 41(19):e185), was added in each well (200 ng/well) and mixed with the chemical compounds at desired concentrations and freshly prepared AdoMet (20 μM final concentration) to start the reaction in a total volume of 50 μL. After 1 hour incubation at 37° C. each well were washed three times with PBS, Tween-20 0.05%, NaCl (500 mM) and three more times with PBST. Specific fluorescent signals were detected with the methylation-sensitive restriction enzyme HpyCH4IV (NEB) as described and measured on a Perkin Elmer Envision detector. The percentage of inhibition is reported. The formula used to calculate the percentage of inhibition is [(X−Y)/X]×100, where X is the signal determined in the absence of the inhibitor and Y is the signal obtained in the presence of the inhibitor. The concentration at which 50% of efficacy of inhibition is observed (EC50) was determined by analysis of a concentration range of the tested compound in triplicates. The non-linear regression fittings with sigmoidal dose-response (variable slope) were performed with GraphPad Prism 4.03 (GraphPad Software).

[2] = tested on: KG-1 human leukemia cells; experiment: Anti-proliferative activity on KG-1 (ATPLite cell viability); assay type: cell-based; conditions: KG-1 cells; for inhibition at 0.1 µM: compound at 0.1 μM, read-out: % proliferation inhibition 0.1 μM; for inhibition at 1 µM: compound at 1 μM, read-out: % proliferation inhibition 1 μM; for inhibition at 5 µM: compound at 5 μM, read-out: % proliferation inhibition 5 μM; for inhibition at 10 µM: compound at 10 μM, read-out: % proliferation inhibition 10 μM
Protocol: Anti-Proliferative Activity. (on KG-1)
KG-1 human leukemia cells were obtained from the ATCC (USA) and cultivated in RPMI 1640 medium (with HEPES and Glutamine, BE12-115F, Lonza, France) supplemented with, respectively, 20% and 15% foetal calf serum (Lonza, France), at 37° C. and under 5% CO2. To measure the anti-proliferative properties of tested molecules, 2×10^4 cells are seeded at day 0 in a 96 wells plate. The compounds to be tested, stored at −20° C. as 10^−2 M stock solution in 100% DMSO, are freshly diluted on day 1 in RPMI 1640 medium, before adding a dose range of 3.2 nM to 10 μM to the cells. This treatment is repeated on day 2 and 3, and on day 4 cell viability is assessed using the ATPLite™ kit from Perkin (ATPlite™ 1 Step Luminescence Assay System, ref 3016739), following the provider instructions. The raw data are analyzed with GraphPad Prism software (v4.03) to generate EC50 values corresponding to the compound concentrations giving 50% reduction in cell viability. The values presented are the mean results of at least two independent experiments. […]
At the end of the experiment, cell viability was evaluated by determining the level of ATP released by viable cells.
EC50 values were determined with curve fitting analysis method (non linear regression model with a sigmoid dose response, variable Hill slope coefficient) provided by the Prism Software (GraphPad). Results were expressed as average EC50 values (concentration of tested compound that inhibits 50% of the maximum effect for the considered compound).

[3] = tested on: luciferase reporter gene under the control of the partially methylated CMV promoter in KG-1 cell line; experiment: Gene expression (CMV-Luc reactivation) in KG-1 cells; assay type: cell-based, human; conditions: 24 h, induction factor vs DMSO control, mean of 3 experiments ± standard error; for Reactivation fold of luciferase gene reporter, 0.1 μM: compound at 0.1 μM; for Reactivation fold of luciferase gene reporter, 1 μM: compound at 1 μM; for Reactivation fold of luciferase gene reporter, 5 μM: compound at 5 μM; for Reactivation fold of luciferase gene reporter, 10 μM: compound at 10 μM
Protocol: Gene Expression. (CMV-Luc Reactivation)
KG-1 cell line, stably transfected with the luciferase Firefly (Luc+ from pGL3 by Promega) reporter gene under the control of the CMV promoter (from pEGFP-N1 by Clontech) partially methylated (50%), is seeded at 20,000 cell per well in 96-well plate. After 24 h of incubation in the presence of the compounds or the solvant DMSO, the induction of the promoter is measured by quantification of luciferase with the Brite-lite™ assay system (Perkin Elmer) according to the manufacturer protocol. The luminescence is measured on EnVision™ Multilabel Plate Reader (Perkin Elmer) and the data are expressed in induction factor compared to the DMSO control condition.

[4] = biological target: T2, His-DNMT1 (182 kDa, human) (Homo sapiens, UniProt P26358); experiment: DNMT1 assay (tritiated SAM Flashplate methylation assay); assay type: biochemical; conditions: for inhibition at 10 µM: compound at 10 μM; for inhibition at 32 µM: compound at 32 μM
T2 construct: His; made in house
Protocol: His-DNMT1 (182 kDa, human) was cloned, expressed and purified as described in Halby et al. (ChemBioChem 2012, 13, 157-65). The reaction was performed in a 10 μL total reaction volume in low volume NBS™ 384-well microplates (Corning), containing the tested compound (up to 1% DMSO), 1 μM of a SAM/[methyl-^3H] SAM (3 TBq/mmol, PerkinElmer) mix in a ratio of 3-to-1 (isotopic dilution 1*:3), 0.3 μM of biotinylated hemimethylated DNA duplex (5′-GATmCGCmCGATGmCGmCGAATmCGmCGATmCGATGmCGAT-3′ and BIOT-5′-[…]-3′), and 90 nM of DNMT1 in methylation buffer (20 mM HEPES pH 7.2, 1 mM EDTA, 50 mM KCl, 25 μg/mL BSA). The reaction was incubated at 37° C. for 2 hours. 8 μL are then transferred into a streptavidin 96-well scintillant coated Flashplate™ (PerkinElmer) containing 190 μL of 20 μM SAH in 50 mM Tris-HCl pH 7.4. The Flashplate™ was agitated at room temperature for 1 hour, washed three times with 200 μL of 0.05% Tween®-20 in 50 mM Tris-HCl pH 7.4, and read in 200 μL of 50 mM Tris-HCl pH 7.4 on TopCount NXT™ (PerkinElmer).

T1 sequence (Q9Y6K1 627-912): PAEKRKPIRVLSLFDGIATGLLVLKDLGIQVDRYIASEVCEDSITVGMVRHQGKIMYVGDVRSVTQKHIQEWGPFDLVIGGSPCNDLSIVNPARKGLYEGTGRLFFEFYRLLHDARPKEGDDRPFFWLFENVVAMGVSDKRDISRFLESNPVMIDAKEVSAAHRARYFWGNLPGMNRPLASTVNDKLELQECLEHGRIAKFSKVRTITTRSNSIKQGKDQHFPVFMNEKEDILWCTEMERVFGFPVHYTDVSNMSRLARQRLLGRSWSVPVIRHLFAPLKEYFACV
T2 sequence (P26358 whole entry): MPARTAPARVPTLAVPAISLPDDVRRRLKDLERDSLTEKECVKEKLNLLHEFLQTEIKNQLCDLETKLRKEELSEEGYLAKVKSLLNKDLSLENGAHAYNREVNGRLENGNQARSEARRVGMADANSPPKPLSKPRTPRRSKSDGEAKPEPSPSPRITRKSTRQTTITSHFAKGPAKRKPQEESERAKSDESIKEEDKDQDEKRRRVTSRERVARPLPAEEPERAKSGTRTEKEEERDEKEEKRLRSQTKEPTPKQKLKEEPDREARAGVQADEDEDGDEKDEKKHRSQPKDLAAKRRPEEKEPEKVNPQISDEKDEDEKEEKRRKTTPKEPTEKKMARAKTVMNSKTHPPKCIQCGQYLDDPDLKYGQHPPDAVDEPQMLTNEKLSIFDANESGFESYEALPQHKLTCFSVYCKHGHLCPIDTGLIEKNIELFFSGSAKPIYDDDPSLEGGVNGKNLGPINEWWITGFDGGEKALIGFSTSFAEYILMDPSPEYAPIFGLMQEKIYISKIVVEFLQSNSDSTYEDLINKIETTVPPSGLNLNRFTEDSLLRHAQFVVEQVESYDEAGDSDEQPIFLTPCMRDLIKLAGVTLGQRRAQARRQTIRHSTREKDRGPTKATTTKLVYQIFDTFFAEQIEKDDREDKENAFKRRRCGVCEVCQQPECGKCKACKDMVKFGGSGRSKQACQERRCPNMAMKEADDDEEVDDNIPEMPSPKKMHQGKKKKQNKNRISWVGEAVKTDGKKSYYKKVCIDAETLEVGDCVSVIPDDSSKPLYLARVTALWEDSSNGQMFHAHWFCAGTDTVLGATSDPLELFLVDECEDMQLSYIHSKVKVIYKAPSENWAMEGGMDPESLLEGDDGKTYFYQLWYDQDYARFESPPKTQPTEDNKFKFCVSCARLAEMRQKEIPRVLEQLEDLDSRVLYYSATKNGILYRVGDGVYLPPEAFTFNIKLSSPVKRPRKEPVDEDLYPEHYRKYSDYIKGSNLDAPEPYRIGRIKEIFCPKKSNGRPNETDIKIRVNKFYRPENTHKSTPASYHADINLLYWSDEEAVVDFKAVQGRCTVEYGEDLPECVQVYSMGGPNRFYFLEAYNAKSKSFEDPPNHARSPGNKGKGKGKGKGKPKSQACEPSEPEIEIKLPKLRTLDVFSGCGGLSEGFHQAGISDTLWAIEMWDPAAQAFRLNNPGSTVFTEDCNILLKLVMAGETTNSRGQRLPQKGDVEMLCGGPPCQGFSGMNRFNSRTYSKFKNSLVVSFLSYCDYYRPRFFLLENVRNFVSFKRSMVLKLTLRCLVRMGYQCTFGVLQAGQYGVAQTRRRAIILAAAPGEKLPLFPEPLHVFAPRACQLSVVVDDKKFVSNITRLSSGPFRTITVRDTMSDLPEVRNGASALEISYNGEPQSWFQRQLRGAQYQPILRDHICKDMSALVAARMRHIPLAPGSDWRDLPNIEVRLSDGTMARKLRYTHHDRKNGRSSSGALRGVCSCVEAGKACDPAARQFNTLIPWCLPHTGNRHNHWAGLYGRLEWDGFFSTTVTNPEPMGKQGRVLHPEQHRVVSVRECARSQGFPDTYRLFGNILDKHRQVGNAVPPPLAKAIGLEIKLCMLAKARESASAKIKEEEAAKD

| Compound | melting point [°C] | pEC50 [1] | inhibition at 1 µM [1] [%] | inhibition at 3.2 µM [1] [%] | EC50 ([2]; 96 h, treatment on days 1-3, viability on day 4 (ATPLite)) [µM] | inhibition at 0.1 µM [2] [%] | inhibition at 1 µM [2] [%] | inhibition at 5 µM [2] [%] | inhibition at 10 µM [2] [%] | Reactivation fold of luciferase gene reporter, 0.1 μM [3] [fold] | Reactivation fold of luciferase gene reporter, 1 μM [3] [fold] | Reactivation fold of luciferase gene reporter, 5 μM [3] [fold] | Reactivation fold of luciferase gene reporter, 10 μM [3] [fold] | pEC50 [4] | inhibition at 10 µM [4] [%] | inhibition at 32 µM [4] [%] |
| --- | --- | --- | --- | --- | --- | --- | --- | --- | --- | --- | --- | --- | --- | --- | --- | --- |
| COc1cc2c(NC3CCN(Cc4ccccc4)CC3)nc(N3CCN(c4ccccc4)CC3)nc2cc1OCC1CCN(CCNc2ccnc3ccccc23)CC1 [E, N-(1-benzylpiperidin-4-yl)-6-methoxy-2-(4-phenylpiperazin-1-yl)-7-((1-(2-(quinolin-4-ylamino)ethyl)piperidin-4-yl)methoxy)quinazolin-4-amine] | 124 to 126 | 6.22 | 74 | 100 | 2.5 | -2.3 | 15.4 | 92.1 | 99.8 | 1.1 ± 0.0 | 3.5 ± 0.0 | 1.3 ± 1.2 | 0.0 ± 0.0 | 5.00 | 59 | 100 |
| c1ccc(CN2CCC(Nc3nc(N4CCN(c5ccccc5)CC4)nc4cc(OCC5CCN(CCNc6ccnc7ccccc67)CC5)ccc34)CC2)cc1 [Compound G, N-(1-benzylpiperidin-4-yl)-2-(4-phenylpiperazin-1-yl)-7-((1-(2-(quinolin-4-ylamino)ethyl)piperidin-4-yl)methoxy)quinazolin-4-amine] | 122 to 124 |  | 57 | 95 |  | -2.2 | 32.2 | 99.6 | 99.8 | 1.1 ± 0.0 | 5.3 ± 0.4 | 0.2 ± 0.1 | 0.0 ± 0.0 | 5.00 | 54 | 100 |
| COc1cc2c(NCCNc3cccc4ccccc34)nc(N3CCN(c4ccccc4)CC3)nc2cc1OCC1CCN(CCNc2ccnc3ccccc23)CC1 [F, N^1-(6-methoxy-2-(4-phenylpiperazin-1-yl)-7-((1-(2-(quinolin-4-ylamino)ethyl)piperidin-4-yl)methoxy)quinazolin-4-yl)-N^2-(naphtalen-1-yl)ethane-1,2-diamine] | 180 to 181 |  | 75 | 84 |  | 2 | 31.9 | 99.6 | 99.9 | 1.1 ± 0.0 | 4.4 ± 0.4 | 1.0 ± 0.8 | 0.0 ± 0.0 | 4.93 | 45 | 93 |
